Measurements as given in ChEMBL document CHEMBL5614442, “Discovery, synthesis and biological evaluation of novel isoquinoline derivatives as potent indoleamine 2, 3-dioxygenase 1 and tryptophan 2, 3-dioxygenase dual inhibitors” (Eur J Med Chem, 2024).

Experiments:
[1] = target: T1, Tryptophan 2,3-dioxygenase (Homo sapiens, UniProt P48775)
Target sequence in this assay (P48775 whole entry): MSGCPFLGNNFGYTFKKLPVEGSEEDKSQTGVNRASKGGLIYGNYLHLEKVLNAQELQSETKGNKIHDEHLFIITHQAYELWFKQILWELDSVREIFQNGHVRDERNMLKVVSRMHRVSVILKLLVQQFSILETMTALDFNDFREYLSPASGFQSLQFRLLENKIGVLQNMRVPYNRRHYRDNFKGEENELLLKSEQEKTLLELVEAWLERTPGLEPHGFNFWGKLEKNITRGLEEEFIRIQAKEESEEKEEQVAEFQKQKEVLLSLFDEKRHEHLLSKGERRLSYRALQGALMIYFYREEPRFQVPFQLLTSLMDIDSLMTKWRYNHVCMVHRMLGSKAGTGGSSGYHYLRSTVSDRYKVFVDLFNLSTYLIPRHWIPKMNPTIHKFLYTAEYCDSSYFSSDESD

[2] = Tmax in male Sprague-Dawley rat at 2 mg/kg, iv measured after 8 hrs by LC-MS analysis; type: ADME, organism-based; settings: in vivo
[3] = target: T2, Indoleamine 2,3-dioxygenase 1 (Homo sapiens, UniProt P14902); test: Inhibition of N-terminal His-tagged recombinant human IDO1 extracted from Escherichia coli Transetta (DE3) using L-tryptophan as substrate preincubated for 5 mins followed by substrate addition and measured after 1 hrs by absorbance based microplate reader
Target sequence in this assay (P14902 whole entry): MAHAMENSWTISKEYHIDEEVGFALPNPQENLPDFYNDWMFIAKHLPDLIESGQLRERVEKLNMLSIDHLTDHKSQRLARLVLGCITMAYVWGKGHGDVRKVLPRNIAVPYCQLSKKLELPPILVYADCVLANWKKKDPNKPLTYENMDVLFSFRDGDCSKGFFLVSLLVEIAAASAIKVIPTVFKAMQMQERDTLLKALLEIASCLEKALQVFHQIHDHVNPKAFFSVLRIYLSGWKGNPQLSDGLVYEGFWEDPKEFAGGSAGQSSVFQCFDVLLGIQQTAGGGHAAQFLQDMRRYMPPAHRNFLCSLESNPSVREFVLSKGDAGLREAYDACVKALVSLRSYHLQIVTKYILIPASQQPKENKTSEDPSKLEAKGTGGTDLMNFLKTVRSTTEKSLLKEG

[4] = Volume of distribution in male Sprague-Dawley rat at 2 mg/kg, iv measured after 8 hrs by LC-MS analysis; type: ADME, organism-based; settings: in vivo
B16-F10 [5] = test: Antitumor activity against mouse B16-F10 cells implanted in male C57BL/6 mouse model assessed as suppression of tumor growth administered intraperitoneally once daily for 14 days; type: functional, cell-based; settings: dose 25-100 mg/kg, route ip, time 14.0 day
[6] = Tmax in male Sprague-Dawley rat at 20 mg/kg, ip measured after 8 hrs by LC-MS analysis; type: ADME, organism-based; settings: in vivo
HeLa = test: Cytotoxicity against human HeLa cells assessed as reduction in cell viability at effective concentration incubated for 24 hrs by CCK8 assay; type: toxicity, cell-based
[7] = AUC (0 to infinity) in male Sprague-Dawley rat at 20 mg/kg, ip measured after 8 hrs by LC-MS analysis; type: ADME, organism-based; settings: in vivo
[8] = target: T2, Indoleamine 2,3-dioxygenase 1; settings: dose 0.78-25 µM
Target sequence in this assay (P14902 whole entry, looked up): as the sequence (P14902 whole entry) above

[9] = Clearance in male Sprague-Dawley rat at 100 mg/kg, po measured after 8 hrs by LC-MS analysis; type: ADME, organism-based; settings: in vivo
[10] = Bioavailability in male Sprague-Dawley rat at 20 mg/kg, ip measured after 8 hrs by LC-MS analysis; type: ADME, organism-based; settings: in vivo
[11] = Tmax in male Sprague-Dawley rat at 100 mg/kg, po measured after 8 hrs by LC-MS analysis; type: ADME, organism-based; settings: in vivo
[12] = Toxicity in male C57BL/6 mouse implanted with mouse B16-F10 cells assessed as effect on liver morphology at 25 to 100 mg/kg, ip administered once daily for 14 days by H and E staining based analysis; type: organism-based; settings: in vivo, 336 h, dose 25-100 mg/kg, time 14 day
[13] = Toxicity in male C57BL/6 mouse implanted with mouse B16-F10 cells assessed as effect on kidney morphology at 25 to 100 mg/kg, ip administered once daily for 14 days by H and E staining based analysis; type: organism-based; settings: in vivo, 336 h, dose 25-100 mg/kg, time 14 day
B16-F10 [14] = test: Cytotoxicity against mouse B16-F10 cells assessed as reduction in cell viability at effective concentration incubated for 24 hrs by CCK8 assay; type: toxicity, cell-based; settings: b16-f10, 24 h
[15] = target: T1, Tryptophan 2,3-dioxygenase; settings: dose 0.78-25 µM
Target sequence in this assay (P48775 whole entry, looked up): as the sequence (P48775 whole entry) above

[16] = AUC (0 to t) in male Sprague-Dawley rat at 100 mg/kg, po measured after 8 hrs by LC-MS analysis; type: ADME, organism-based; settings: in vivo
[17] = Cmax in male Sprague-Dawley rat at 20 mg/kg, ip measured after 8 hrs by LC-MS analysis; type: ADME, organism-based; settings: in vivo
[18] = AUC (0 to t) in male Sprague-Dawley rat at 20 mg/kg, ip measured after 8 hrs by LC-MS analysis; type: ADME, organism-based; settings: in vivo
[19] = Toxicity in male C57BL/6 mouse implanted with mouse B16-F10 cells assessed as effect on heart morphology at 25 to 100 mg/kg, ip administered once daily for 14 days by H and E staining based analysis; type: organism-based; settings: in vivo, 336 h, dose 25-100 mg/kg, time 14 day
[20] = Volume of distribution in male Sprague-Dawley rat at 20 mg/kg, ip measured after 8 hrs by LC-MS analysis; type: ADME, organism-based; settings: in vivo
[21] = Clearance in male Sprague-Dawley rat at 2 mg/kg, iv measured after 8 hrs by LC-MS analysis; type: ADME, organism-based; settings: in vivo
[22] = AUC (0 to infinity) in male Sprague-Dawley rat at 2 mg/kg, iv measured after 8 hrs by LC-MS analysis; type: ADME, organism-based; settings: in vivo
[23] = Clearance in male Sprague-Dawley rat at 20 mg/kg, ip measured after 8 hrs by LC-MS analysis; type: ADME, organism-based; settings: in vivo
[24] = Half-life in male Sprague-Dawley rat at 100 mg/kg, po measured after 8 hrs by LC-MS analysis; type: ADME, organism-based; settings: in vivo
[25] = Toxicity in male C57BL/6 mouse implanted with mouse B16-F10 cells assessed as effect on spleen morphology at 25 to 100 mg/kg, ip administered once daily for 14 days by H and E staining based analysis; type: organism-based; settings: in vivo, 336 h, dose 25-100 mg/kg, time 14 day
[26] = target: T1, Tryptophan 2,3-dioxygenase; remark: listed apart in the source
Target sequence in this assay (P48775 whole entry): as above

[27] = target: T2, Indoleamine 2,3-dioxygenase 1; test: Binding affinity to recombinant human IDO1 assessed as dissociation rate constant at 0.78 to 25 uM by SPR analysis
Target sequence in this assay (P14902 whole entry): as the sequence (P14902 whole entry) above

[28] = target: T2, Indoleamine 2,3-dioxygenase 1; test: Binding affinity to recombinant human IDO1 assessed as equilibrium dissociation constant by SPR analysis
Target sequence in this assay (P14902 whole entry): as above

[29] = target: T2, Indoleamine 2,3-dioxygenase 1; test: Inhibition of IDO1 in IFN-gamma induced human HeLa cells using L-tryptophan as substrate incubated for 24 hrs by absorbance based microplate analysis; type: cell-based
Target sequence in this assay (P14902 whole entry): as above

[30] = Toxicity in male C57BL/6 mouse implanted with mouse B16-F10 cells assessed as effect on lung morphology at 25 to 100 mg/kg, ip administered once daily for 14 days by H and E staining based analysis; type: organism-based; settings: in vivo, 336 h, dose 25-100 mg/kg, time 14 day
[31] = Cmax in male Sprague-Dawley rat at 100 mg/kg, po measured after 8 hrs by LC-MS analysis; type: ADME, organism-based; settings: in vivo
[32] = Half-life in male Sprague-Dawley rat at 20 mg/kg, ip measured after 8 hrs by LC-MS analysis; type: ADME, organism-based; settings: in vivo
[33] = AUC (0 to t) in male Sprague-Dawley rat at 2 mg/kg, iv measured after 8 hrs by LC-MS analysis; type: ADME, organism-based; settings: in vivo
[34] = Volume of distribution in male Sprague-Dawley rat at 100 mg/kg, po measured after 8 hrs by LC-MS analysis; type: ADME, organism-based; settings: in vivo
[35] = Half-life in male Sprague-Dawley rat at 2 mg/kg, iv measured after 8 hrs by LC-MS analysis; type: ADME, organism-based; settings: in vivo
[36] = Oral bioavailability in male Sprague-Dawley rat at 100 mg/kg measured after 8 hrs by LC-MS analysis; type: ADME, organism-based; settings: in vivo
[37] = Cmax in male Sprague-Dawley rat at 2 mg/kg, iv measured after 8 hrs by LC-MS analysis; type: ADME, organism-based; settings: in vivo
U-87 MG = test: Cytotoxicity against human U87 cells assessed as reduction in cell viability at effective concentration incubated for 24 hrs by CCK8 assay; type: toxicity, cell-based; settings: u-87mg atcc
[38] = AUC (0 to infinity) in male Sprague-Dawley rat at 100 mg/kg, po measured after 8 hrs by LC-MS analysis; type: ADME, organism-based; settings: in vivo
[39] = Toxicity in male C57BL/6 mouse implanted with mouse B16-F10 cells assessed as body weight loss at 25 to 100 mg/kg, ip administered once daily for 14 days; type: organism-based; settings: in vivo, 336 h, dose 25-100 mg/kg, time 14 day
HEK-293T = test: Cytotoxicity against HEK293T cells assessed as reduction in cell viability at effective concentration incubated for 24 hrs by CCK8 assay; type: toxicity, cell-based; settings: human
[40] = target: T1, Tryptophan 2,3-dioxygenase; remark: listed apart in the source
Target sequence in this assay (P48775 whole entry): as the sequence (P48775 whole entry) above

[41] = Toxicity in male C57BL/6 mouse implanted with mouse B16-F10 cells assessed as effect on kidney morphology at 100 mg/kg, ip administered once daily for 14 days by H and E staining based analysis; type: organism-based; settings: in vivo, 336 h, time 14 day
[42] = Toxicity in male C57BL/6 mouse implanted with mouse B16-F10 cells assessed as effect on spleen morphology at 100 mg/kg, ip administered once daily for 14 days by H and E staining based analysis; type: organism-based; settings: in vivo, 336 h, time 14 day
[43] = Toxicity in male C57BL/6 mouse implanted with mouse B16-F10 cells assessed as body weight loss at 100 mg/kg, ip administered once daily for 14 days; type: organism-based; settings: in vivo, 336 h, time 14 day
[44] = Toxicity in male C57BL/6 mouse implanted with mouse B16-F10 cells assessed as effect on liver morphology at 100 mg/kg, ip administered once daily for 14 days by H and E staining based analysis; type: organism-based; settings: in vivo, 336 h, time 14 day
[45] = Toxicity in male C57BL/6 mouse implanted with mouse B16-F10 cells assessed as effect on heart morphology at 100 mg/kg, ip administered once daily for 14 days by H and E staining based analysis; type: organism-based; settings: in vivo, 336 h, time 14 day
[46] = Toxicity in male C57BL/6 mouse implanted with mouse B16-F10 cells assessed as effect on lung morphology at 100 mg/kg, ip administered once daily for 14 days by H and E staining based analysis; type: organism-based; settings: in vivo, 336 h, time 14 day

Q: With COc1ccc2cc(-c3ccc(NS(=O)(=O)C(F)(F)F)cc3)ncc2c1O as the molecule, how does the IC50 [1] read?
A: 80 nM

Q: And the Tmax [2]?
A: 4.98 min

Q: And the IC50 [3]?
A: 310 nM

Q: What about the Vd [4] of the same molecule?
A: 6.9 L/kg

Q: What about the Activity (B16-F10 [5]) of the same molecule?
A: Dose-Dependent Effect

Q: What about the Tmax [6] of the same molecule?
A: 15 min

Q: What about the Activity (HeLa) of the same molecule?
A: Non-Toxic

Q: And the AUC(0-inf) [7]?
A: 6660 ng·h/mL

Q: What about the Ka [8] of the same molecule?
A: 4.69 10^4/Ms

Q: What about the CL/F [9] of the same molecule?
A: 59.7 mL/min/kg

Q: And the bioavailability [10]?
A: 72.6%

Q: And the Tmax [11]?
A: 1.33 h

Q: What about the Activity [12] of the same molecule?
A: Non-Toxic

Q: And the Activity [13]?
A: Non-Toxic

Q: And the Activity (B16-F10 [14])?
A: Non-Toxic

Q: What about the Ka [15] of the same molecule?
A: 4.9 10^4/Ms

Q: And the AUC(0-t) at 8 h [16]?
A: 23300 ng·h/mL

Q: What about the Cmax [17] of the same molecule?
A: 11400 ng/mL

Q: And the AUC(0-t) at 8 h [18]?
A: 6690 ng·h/mL

Q: And the Activity [19]?
A: Non-Toxic

Q: What about the Vd [20] of the same molecule?
A: 5.17 L/kg

Q: What about the clearance [21] of the same molecule?
A: 37.6 mL/min/kg

Q: What about the AUC(0-inf) [22] of the same molecule?
A: 917 ng·h/mL

Q: And the CL/F [23]?
A: 50 mL/min/kg

Q: And the half-life [24]?
A: 168 min

Q: And the Activity [25]?
A: Non-Toxic

Q: And the Kd [26]?
A: 740 nM

Q: And the koff [27]?
A: 0.021 s⁻¹

Q: And the Kd [28]?
A: 450 nM

Q: And the IC50 [29]?
A: 9.29 µM

Q: And the Activity [30]?
A: Non-Toxic

Q: What about the Cmax [31] of the same molecule?
A: 5190 ng/mL

Q: And the half-life [32]?
A: 71.7 min

Q: What about the AUC(0-t) at 8 h [33] of the same molecule?
A: 916 ng·h/mL

Q: What about the Vd [34] of the same molecule?
A: 14.376 L/kg

Q: And the half-life [35]?
A: 128 min

Q: What about the bioavailability [36] of the same molecule?
A: 61.9%

Q: And the Cmax [37]?
A: 3420 ng/mL

Q: What about the Activity (U-87 MG) of the same molecule?
A: Non-Toxic

Q: And the AUC(0-inf) [38]?
A: 28400 ng·h/mL

Q: And the Activity [39]?
A: Non-Toxic

Q: What about the Activity (HEK-293T) of the same molecule?
A: Non-Toxic

Q: What about the IC50 [40] of the same molecule?
A: 7.23 µM

Q: For Cn1cc(C[C@H](N)C(=O)O)c2ccccc21 [(L)-1-METHYLTRYPTOPHAN], which Activity [41] is on record?
A: Non-Toxic

Q: And the Activity [42]?
A: Non-Toxic

Q: What about the Activity [43] of the same molecule?
A: Non-Toxic

Q: What about the Activity [44] of the same molecule?
A: Non-Toxic

Q: And the Activity [45]?
A: Non-Toxic

Q: What about the Activity [46] of the same molecule?
A: Non-Toxic
